Source: paper PMC6964270, “Co-Prodrugs of 7-Ethyl-10-hydroxycamptothecin and Vorinostat with in Vitro Hydrolysis and Anticancer Effects” (ACS Omega, 2019)

Key:
[1] = test system: HCT116 cell line; experiment: In vitro cytotoxicity, SRB assay, HCT116; assay type: cell-based; settings: Homo sapiens, HCT-116, 72 h, three independent determinations, read-out: IC50 (mean ± SD) HCT-116
[2] = test system: A549 cell line; experiment: In vitro cytotoxicity, SRB assay, A549; assay type: cell-based; settings: Homo sapiens, 72 h, three independent determinations, read-out: IC50 (mean ± SD) A549
[3] = In vitro degradation and release of co-prodrugs in PBS pH 7.4 (HPLC); assay type: physicochemical; settings: pH 7.4 PBS, 37 °C; for formation percentage of SN38: 24 h later
Protocol: (§1) Chromatographic detection was carried out by using Agilent 1200 high-performance liquid chromatography (HPLC, Agilent, Palo Alto, CA) with a Diamonsil C18 (250 mm × 4.6 mm) column. The detection was conducted at 254 nm (UV detector) with the column temperature at room temperature. The sample volume for each injection was 50 μL. The gradient elution was applied with a mobile phase of acetonitrile (ACN) containing 0.1% formic acid and water containing 0.1% formic acid with a constant flow rate of 1 mL/min: 0–15 min (5% ACN to 95% ACN), 15–25 min (95% ACN). The external standard method was established by HPLC in order to determine the content of each compound.
SN38-SAHA co-prodrug solutions with a concentration of 100 μM/L were diluted to 0.05 μM/L with 10 mM PBS buffer (pH 7.4/6.0). After incubation at 37 °C for 0.5, 1, 2, 3, 4, 6, 12, 24, and 48 h, the areas of SN38-SAHA co-prodrugs and other species were detected by HPLC as well. Then each compound was calculated by the concentration–area standard curve, which was obtained by the external standard method.

[4] = In vitro degradation and release of co-prodrugs in human plasma (HPLC); assay type: in vitro ADME; settings: male, 37 °C, read-out: t1/2 of co-prodrug in plasma (converted)
Text: SAHA was synthesized before. SN-38 was purchased from Shanghai Puyi Chemical Co., Ltd. Di-tert-butyl dicarbonate ((Boc)2O), 4-dimethylaminopyridine (DMAP), 1,1′-carbonyl-diimidazole (CDI), and N,N′-diisopropylcarbodiimide (DIC) were all purchased from Energy Chemical Reagent Co. ( Shanghai, China). The different amino acids were purchased from Meryer Chemical Reagent Co. (Shanghai, China). CH2Cl2 was dried and redistilled before use. All chemical reagents used were of analytical-grade quality. Mouse plasma was taken from KM mouse (male, 6 weeks old). Human plasma was donated by an adult.
as §1
SN38-SAHA co-prodrug solutions with a concentration of 100 μM/L were diluted to 0.1 μM/L by plasma (human/mouse). After incubation at 37 °C for 0.5, 1, 2, 3, 4, and 6 h, 50 μL of reaction mixture was quenched with 50 μL of cold ACN and centrifuged at 30000 rpm × 5 min. The supernatant (50 μL) was detected by HPLC. Then each compound was calculated by the concentration–area standard curve, which was obtained by the external standard method.

CCc1c2c(nc3ccc(O)cc13)-c1cc3c(c(=O)n1C2)COC(=O)[C@]3(O)CC [SN38, 7-Ethyl-10-hydroxycamptothecin] showed an IC50 [1] of 55.1 ± 10 nM and an IC50 [2] of 45.4 ± 4.7 nM.
For CCc1c2c(nc3ccc(O)cc13)-c1cc3c(c(=O)n1C2)COC(=O)[C@@]3(CC)OC(=O)CCNC(=O)ONC(=O)CCCCCCC(=O)Nc1ccccc1 [3b], the “formation percentage of SN38” value [3] was 3.4%, the IC50 [1] was 428 ± 20.5 nM and the half-life at 0.1 μM/L [4] was 3 h. The IC50 [2] was 322 ± 32.5 nM.
With CCc1c2c(nc3ccc(O)cc13)-c1cc3c(c(=O)n1C2)COC(=O)[C@@]3(CC)OC(=O)CCCNC(=O)ONC(=O)CCCCCCC(=O)Nc1ccccc1 [3c] the “formation percentage of SN38” value [3] was “almost have no SN38 generated”, the IC50 [1] was 760 ± 30.9 nM and the half-life at 0.1 μM/L [4] was 5 h. It also gave an IC50 [2] of 663 ± 24.3 nM.
For CCc1c2c(nc3ccc(O)cc13)-c1cc3c(c(=O)n1C2)COC(=O)[C@@]3(CC)OC(=O)CNC(=O)ONC(=O)CCCCCCC(=O)Nc1ccccc1 [3a], the half-life at 0.05 μM/L ([3]; PBS buffer, read-out: half-life (t1/2) of co-prodrug in PBS (converted)) was 2 h, the “formation percentage of SN38” value [3] was 26.3% and the IC50 [1] was 113 ± 10.8 nM. The half-life at 0.1 μM/L [4] was 1 h and the IC50 [2] was 87.3 ± 7.9 nM.
For CCc1c2c(nc3ccc(O)cc13)-c1cc3c(c(=O)n1C2)COC(=O)[C@@]3(CC)OC(=O)CCCCCNC(=O)ONC(=O)CCCCCCC(=O)Nc1ccccc1 [3d], the “formation percentage of SN38” value [3] was “almost have no SN38 generated”, the IC50 [1] was 3010 ± 251 nM and the half-life at 0.1 μM/L [4] was 5 h. It also gave an IC50 [2] of 3100 ± 116 nM.
